Assay results: ChEMBL document CHEMBL1201862, “PubChem BioAssay data set” (2004)
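Step 1: Grow cells in 96-well plates. Step 2: Expose to compound for 48 hours at 5 concentrations. Step 3: Interpolate endpoints linearly; if unreached, use highest concentration. Abbreviation: GI50, concentration required for 50% inhibition of growth.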 Activity calls are given as the source filed them. No stated cut-off is given here; in the data, active = GI50 up to about 1.1 µM and inactive = higher.

Columns and labels:
Assay in all cases: NCI anticancer screen, dose series, 48 h
T47D = system: T47D
Hs-578T = system: Hs-578T
RXF 393 = system: RXF 393
HCT-116 = system: HCT-116
NCI-H460 = system: NCI-H460
SNB-75 = system: SNB-75
NCI-H226 = system: NCI-H226
SW-620 = system: SW-620
SF-539 = system: SF-539
OVCAR-8 = system: OVCAR-8
OVCAR-4 = system: OVCAR-4
ACHN = system: ACHN
MDA-MB-231 = system: MDA-MB-231
MCF7 = system: MCF7
PC-3 = system: PC-3
A498 = system: A498
LOX IMVI = system: LOX IMVI
EKVX = system: EKVX
786-0 = system: 786-0
SN12C = system: SN12C
UACC-62 = system: UACC-62
OVCAR-3 = system: OVCAR-3
U-251 = system: U-251
CAKI-1 = system: CAKI-1
SK-MEL-28 = system: SK-MEL-28
KM12 = system: KM12
SK-OV-3 = system: SK-OV-3
Malme-3M = system: Malme-3M
A549 = system: A549
HL-60 = system: HL-60
IGROV-1 = system: IGROV-1
COLO 205 = system: COLO 205
HOP-62 = system: HOP-62
HOP-92 = system: HOP-92
TK-10 = system: TK-10
SF-295 = system: SF-295
HCT-15 = system: HCT-15
SK-MEL-5 = system: SK-MEL-5
BT-549 = system: BT-549
SNB-19 = system: SNB-19
UO-31 = system: UO-31
DU-145 = system: DU-145
HCC 2998 = system: HCC 2998
MDA-MB-435 = system: MDA-MB-435
SK-MEL-2 = system: SK-MEL-2
HT-29 = system: HT-29
UACC-257 = system: UACC-257
NCI-H23 = system: NCI-H23
OVCAR-5 = system: OVCAR-5
SR = system: SR
SF-268 = system: SF-268
RPMI-8226 = system: RPMI-8226
K562 = system: K562
MOLT-4 = system: MOLT-4
NCI-H522 = system: NCI-H522
NCI/ADR-RES = system: NCI/ADR-RES
M14 = system: M14
CCRF-CEM = system: CCRF-CEM
MDA-N = system: MDA-N

Measured: GI50

CC(=O)O/C(=C1\C[C@H]2[C@@H]3CC=C4C[C@@H](OC(C)=O)CC[C@]4(C)[C@H]3CC[C@]2(C)C1=O)C(F)(F)F
4.03 µM: HCT-15
inactive: T47D 7.4 µM | Hs-578T 7 µM | RXF 393 6.19 µM | HCT-116 6.15 µM | NCI-H460 4.7 µM | SNB-75 21.9 µM | NCI-H226 21 µM | SW-620 5.61 µM | SF-539 7.24 µM | OVCAR-8 5.18 µM | OVCAR-4 11.4 µM | ACHN 16.2 µM | MDA-MB-231 10.4 µM | MCF7 5.86 µM | PC-3 13.5 µM | A498 19.3 µM | LOX IMVI 1.86 µM | EKVX 12.7 µM | 786-0 8.53 µM | SN12C 8.97 µM | UACC-62 8.77 µM | OVCAR-3 5.87 µM | U-251 5.43 µM | CAKI-1 9.71 µM | SK-MEL-28 14.9 µM | KM12 12.7 µM | SK-OV-3 20.1 µM | Malme-3M 3.56 µM | A549 15.3 µM | HL-60 3.51 µM | IGROV-1 5.56 µM | COLO 205 10.8 µM | HOP-62 14.1 µM | HOP-92 8.24 µM | TK-10 12.2 µM | SF-295 16.2 µM | SK-MEL-5 6.08 µM | BT-549 12.2 µM | SNB-19 17.8 µM | UO-31 12.1 µM | DU-145 9.95 µM | HCC 2998 6.31 µM | MDA-MB-435 7.85 µM | SK-MEL-2 7.62 µM | HT-29 10.1 µM | UACC-257 6.98 µM | NCI-H23 6.85 µM | OVCAR-5 29.4 µM | SR 2.88 µM | SF-268 6.62 µM | RPMI-8226 4.08 µM | MOLT-4 2.59 µM | NCI-H522 3.18 µM | NCI/ADR-RES 7.16 µM | M14 7.19 µM | CCRF-CEM 1.95 µM | MDA-N 7.64 µM
active: K562 977 nM
